For 104 compounds, cytotoxicity results are on record in ChEMBL document CHEMBL3507680, “University of Dundee, Gates Library screen for HepG2 cell viability”.

This data set in a line: Human HepG2 cell viability assay in 384 well format. In kind it is toxicity, cell-based. Details: dose 125 nL, time 70.5 hour; cytotoxicity at 70.5 h: concentration not given beside the values. Conditions: HepG2 cells, read-out: Inhibition.

As to `COCc1nc(N(C)C)ncc1C(=O)OC`, the cytotoxicity at 70.5 h is -4.46%.

Regarding `Cc1cc(NC(=O)CC2(Cn3cnnn3)CCCCC2)nn1C`, the cytotoxicity at 70.5 h is -23.2%. As for `Cc1ccc(C)c(NC(=O)Cn2cc(I)cn2)c1`, the figure is -13.2%. Turning to `Cc1ccc(NC(=O)Cn2cc(I)cn2)cc1C`, the cytotoxicity at 70.5 h was determined as 20.3%. Turning to `COc1cccc2c1ccn2CCC(=O)N1CCC(C(=O)O)CC1`, the cytotoxicity at 70.5 h is -5.23%.

`CC(C)NC(=O)CC1(Cn2cnnn2)CCCCC1`: the cytotoxicity at 70.5 h was -22.1%. For `O=C(COc1coc(CN2CCCCC2)cc1=O)c1ccccc1`, the cytotoxicity at 70.5 h is -18.6%. In the case of `COc1ccc(C(=O)COc2coc(CN3CCSCC3)cc2=O)cc1`, the cytotoxicity at 70.5 h is -19.9%. As for `O=C(O)C1CCCN(C(=O)CCn2ccc3c(Cl)cccc32)C1` (centres undefined), the cytotoxicity at 70.5 h was -17.2%. In the case of `CCCOc1cccc(C(=O)Oc2cc(=O)n3cccc(C)c3n2)c1`, the cytotoxicity at 70.5 h is -12.8%.

On to `Cc1cccn2c(=O)cc(OC(=O)c3ccccc3Cl)nc12`, for which the cytotoxicity at 70.5 h is -10.1%. As for `COCCNC(=O)Cn1c(-c2cccc(Cl)c2)nc(C)c(CCO)c1=O`, the figure is 0.393%; as for `CC/N=c1\nc(NCC)nc2n1C(O)(Nc1cccc(Cl)c1Cl)CS2` (centres undefined), -1.29%. In the case of `COCCNC(=O)Cn1c(-c2ccc(F)cc2)nc(C)c(CCO)c1=O`, the cytotoxicity at 70.5 h is -2.18%.

Consider `CCOc1cccc2c1OCC(=O)N(c1ccc(N(C)C)cc1)C2`, for which the cytotoxicity at 70.5 h is -8.85%.

Consider `O=c1[nH]c2c(-c3ccccn3)nsc2c(=O)n1C1CCCCC1`, for which the cytotoxicity at 70.5 h was -5.9%. With `O=c1[nH]nc2c(S(=O)(=O)N3CCCC3)cccn12` the figure was -4.02%; with `COCCn1ccc2c(cnc3nc(SC)nn32)c1=O`, -4.98%; with `c1cc(-c2nnc3sc(CCN4CCCC4)nn23)ccn1`, -9.13%. As for `O=C(c1cc(Br)ccc1-n1cnnn1)N1CCCC1`, the figure is -3.68%; as for `O=C(CCc1ccc2c(c1)CCO2)Nc1nnn[nH]1`, -6.65%; as for `CC(O)CNc1c(NCc2ccco2)c(=O)c1=O` (centres undefined), -9.21%.

Turning to `C[C@H](NC(=O)OC(C)(C)C)c1nnc(S(=O)(=O)Cc2cccc(F)c2)o1`, the cytotoxicity at 70.5 h was -6.88%. With `O=C(c1cc(Br)ccc1-n1cnnn1)N1CCCCC1` the figure was 6.11%; with `O=C(O)Cn1nc(-c2ccccc2F)ccc1=O`, 2.69%; with `NC(=O)Cn1nc(-c2ccccc2F)ccc1=O`, -9.13%.

Turning to `CCOc1cc(C)c(-c2cc(N)[nH]n2)cc1OCC`, the cytotoxicity at 70.5 h is -8.56%. Turning to `CC/N=c1\nc(NCC)nc2n1C(O)(Nc1cc(C)ccc1C)CS2` (centres undefined), the cytotoxicity at 70.5 h was -10.1%. With `CCOc1ccc(CNCCCn2ccnc2)cc1OC` the figure was -13.2%; with `Cc1nc(Nc2ccc(Cl)cn2)sc1C(=O)NCCCN1CCCCC1`, -3.37%. On to `O=C(O)c1nnn(Cc2cccc(C(F)(F)F)c2)c1-c1ccccn1`, for which the cytotoxicity at 70.5 h is -7.66%. In the case of `O=C(O)c1nnn(Cc2cccc(C(F)(F)F)c2)c1-c1ccncc1`, the cytotoxicity at 70.5 h is -8.89%.

`O=C(c1ccc(-c2ccc(O)nc2)s1)N1CCCCC1`: the cytotoxicity at 70.5 h is -8.32%. Regarding `Cn1ncc(C(=O)N2CCN(C(=O)c3ccco3)CC2)c1Cl`, the cytotoxicity at 70.5 h is -13.4%. As for `Cc1ccc2cnn(CCC(=O)Nc3nc(C)c(C)s3)c2c1`, the figure is 4.56%; as for `COCc1nc(N(C)C)ncc1C(=O)Nc1cc(C)cc(C)c1`, -6.56%. For `Cc1ccc(CNc2cc(C(=O)N3CCOCC3)nc(C)n2)cc1`, the cytotoxicity at 70.5 h is -9.84%.

In the case of `Cc1nc(NCCc2ccccc2)cc(C(=O)N2CCOCC2)n1`, the cytotoxicity at 70.5 h stood at 5.2%. As for `CCOC(=O)C1CCN(c2cc(C(=O)N3CCOCC3)nc(C)n2)CC1`, the figure is 0.918%; as for `CCC(=O)Nc1nnc(CCOc2ccc(OC)cc2)s1`, 3.07%; as for `CCn1c(SCC(=O)O)nnc1C(C)NC(=O)c1ccc(Cl)cc1` (centres undefined), -8.19%. For `CC(NC(=O)c1ccc(Cl)cc1)c1nnc(SCC(=O)O)n1C` (centres undefined), the cytotoxicity at 70.5 h turned out to be 18.7%. As for `CCOC(=O)C1CCN(c2cc(C(=O)N3CCCCC3)nc(C)n2)CC1`, the figure is -8.82%; as for `O=C(O)c1ccnc2c(Br)cccc12`, -3.81%. Turning to `CCn1ccc(NC(=O)CN2C(=O)CC(C)(C)c3ccccc32)n1`, the cytotoxicity at 70.5 h was -8.59%. With `COCCNC(=O)c1nnn(Cc2ccccc2)c1OC` the figure was -2.5%; with `COc1c(C(=O)NCC2CCCO2)nnn1Cc1ccccc1` (centres undefined), -3.19%.

As to `COc1c(C(=O)NCC(C)C)nnn1Cc1ccccc1`, the cytotoxicity at 70.5 h is -4.1%. Regarding `CCCNC(=O)c1cc(C(C)C)nc(N2CCCC2)n1`, the cytotoxicity at 70.5 h is -8.39%.

In the case of `Cc1cccc(NC(=O)c2cccc(OCc3nnnn3C)c2)n1`, the cytotoxicity at 70.5 h turned out to be 18.7%. As for `CC1CCN(C(=O)C2CC(=O)N(c3cnn(C(C)C)c3)C2)CC1` (centres undefined), the figure is -13.2%. For the compound `CC(C)n1cc(N2CC(C(=O)N3CCC(C(N)=O)CC3)CC2=O)cn1` (centres undefined), the cytotoxicity at 70.5 h is -11.7%. With `COc1cc(-c2n[nH]c(CO)n2)cc(OC)c1OC` the figure was 29.6%; with `CC(=O)NCCOc1c(Cl)cccc1Cl`, 28.8%; with `Cc1ccc2c(c1)c(C)cc(=O)n2CCCN`, -4.61%.

On to `COCCCNC(=O)c1cc(C(C)C)nc(N2CCCC2)n1`, for which the cytotoxicity at 70.5 h is -10.1%. With `COCCNC(=O)c1cc(C(C)C)nc(N2CCCC2)n1`, the cytotoxicity at 70.5 h is -9.32%. For the compound `CC(C)n1cc(S(=O)(=O)N2CCCCC2)cn1`, the cytotoxicity at 70.5 h is 9.02%. With `CCn1c(NCc2ccco2)nc2c(C)nn(C)c2c1=O` the figure was 31.6%. With `CCn1cc(CN(C)S(=O)(=O)c2cc(Cl)ccc2Cl)cn1` the figure was 22.9%.

For the compound `CCOCCCNC(=O)c1nn(CC)cc1Cl`, the cytotoxicity at 70.5 h came to 21.2%.

Regarding `CCOCCCNC(=O)c1cn(CC)nc1C`, the cytotoxicity at 70.5 h was -8.03%. With `Cc1ccc(NC(=O)c2n[nH]c(-n3cnnc3)n2)cc1C` the figure was 28.4%; with `Cc1ccc(C)c(NC(=O)c2n[nH]c(-n3cnnc3)n2)c1`, -0.779%; with `Cc1nn(C)c2c(N3CCN(C(=O)c4ccccc4)CC3)ncnc12`, -2.93%.

Take `CSCc1cccc(S(=O)(=O)N2CCSCC2)c1`: the cytotoxicity at 70.5 h is -4.49%.

As for `Cc1nn(C)c2cn(C(C)C(=O)NCc3cccnc3)nc12` (centres undefined), the cytotoxicity at 70.5 h is -1.5%. As for `Cc1nc(N2CCCCC2)ncc1-c1cc(O)[nH]n1`, the figure is -3.47%; as for `CCc1nc(NCC(=O)N2CCOCC2)c2c(n1)c(C)nn2CC`, -9.61%.

In the case of `CCC(=O)Nc1nnc(CCCOc2ccccc2)s1`, the cytotoxicity at 70.5 h was -13.1%.

With `Cc1cccc2c1cnn2CCC(=O)NCC(=O)N(C)C`, the cytotoxicity at 70.5 h is -9.91%. In the case of `CCNC(=O)c1nnc2ccc(N3CCOCC3)cc2n1`, the cytotoxicity at 70.5 h came to 12.6%. As to `CCN(CC)C(=O)c1nnc2ccc(N3CCOCC3)cc2n1`, the cytotoxicity at 70.5 h stood at 26.5%. With `COCc1nc(N(C)C)ncc1C(=O)Nc1ccn(C)n1`, the cytotoxicity at 70.5 h was 5.17%.

As for `O=C1CC(c2ccccc2)c2snc(C(=O)O)c2N1` (centres undefined), the cytotoxicity at 70.5 h came out at 24.7%. In the case of `CCN1C(=O)C(C)(C)c2cc(NC(=O)c3ccco3)ccc21`, the cytotoxicity at 70.5 h was -7.99%. With `CCn1ccc(C(=O)NCCCN2CCOCC2)n1`, the cytotoxicity at 70.5 h is -11.6%. As for `Cc1cc(C)n(CCC(=O)N2CCC(c3nc(C(C)C)no3)CC2)n1`, the cytotoxicity at 70.5 h was -5.07%. Turning to `CC(C)C(=O)NCCCn1ncc2c(Cl)cccc21`, the cytotoxicity at 70.5 h was -0.542%. As for `Nc1ncc2c(n1)CN(C1CCCC1)C2=O`, the figure is -7.28%; as for `CC1(C)CC(N2Cc3nc(N4CCOCC4)ncc3C2=O)CC(C)(C)N1`, 13.3%; as for `Cc1cccc(Cn2ccc(NS(C)(=O)=O)n2)c1`, -4.99%. As for `Cc1ccc(Cn2ccc(NS(C)(=O)=O)n2)cc1`, the figure is -10.8%. With `O=C(COCc1nc(-c2ccncc2)no1)N1CCCCCC1` the figure was -5.87%; with `COc1ccc(Nc2nc3c(C)nn(C)c3c(=O)n2C)c(OC)c1`, -18.2%; with `CCOc1ccccc1Nc1nc2c(C)nn(C)c2c(=O)n1C`, 8.71%. `CCN1CCN(c2nc(C(C)C)nc3c(C)nn(CC)c23)CC1`: the cytotoxicity at 70.5 h is 13.6%. As for `CCCc1nc(N2CCN(CC)CC2)c2c(n1)c(C)nn2CC`, the figure is -5.26%; as for `CCn1cc(N)c(C(=O)NCc2cnn(C)c2)n1`, -7.78%; as for `CNc1cc(C)nc(C2CN(Cc3cncs3)CCO2)c1` (centres undefined), -11.5%. As for `Cc1nc(C2CCCN2C(=O)CCc2ccccc2)ncc1C(N)=O` (centres undefined), the cytotoxicity at 70.5 h was -11.8%. As for `O=C(c1cnco1)N1C[C@@H](O)[C@H](Oc2cccc(F)c2)C1`, the figure is 14.4%; as for `O=C(O)CN1CCOCC(Cc2ccc(Cl)cc2)C1` (centres undefined), -7.85%.

Consider `Cc1ccnc(C2CCCN2C(=O)c2cnccn2)n1` (centres undefined), for which the cytotoxicity at 70.5 h is -9.28%. With `COCCC(=O)N1CCCC1c1nccc(C)n1` (centres undefined) the figure was -12.1%; with `NC(=O)CN1CCOCC(Cc2ccccc2)C1` (centres undefined), -11.7%. As for `Cc1ccccc1CN(C)C(=O)c1cc(C2CCCN2C)ccn1` (centres undefined), the figure is 10.5%. As for `Cc1ncsc1CN1CCN(C2CCOCC2)CC(C(N)=O)C1` (centres undefined), the figure is 10.5%; as for `c1ccc(-c2nnc(C3CCCN(CC4CCCCC4)C3)o2)nc1` (centres undefined), -7.93%.

For the compound `CCC(=O)N1CCC(c2nc(O)c3c(n2)CN(C2CCCCC2)CC3)C1` (centres undefined), the cytotoxicity at 70.5 h stood at 31.2%. On to `O=C(c1cccnc1)N1CCC(c2nc(O)cc(-c3ccncc3)n2)C1` (centres undefined), for which the cytotoxicity at 70.5 h is -10.5%. In the case of `CNC(=O)C1(CCCc2ccncc2)CCCCN1` (centres undefined), the cytotoxicity at 70.5 h stood at 15.5%. With `COc1ccc(C(=O)CN(C2=NCCCCC2)c2ccccc2)cc1`, the cytotoxicity at 70.5 h was -25.8%. `O=C(CN(C1=NCCCC1)c1ccccc1)c1ccc(OC(F)F)cc1`: the cytotoxicity at 70.5 h is -4.12%.
